As usually defined, the EC50 is the concentration needed to bring the measured effect to its halfway point. Lower therefore signals a more potent agent.

Experiment [1] concerns the target T1, Orexin receptor type 2 (Homo sapiens, UniProt O43614).
T1 sequence (O43614 whole entry): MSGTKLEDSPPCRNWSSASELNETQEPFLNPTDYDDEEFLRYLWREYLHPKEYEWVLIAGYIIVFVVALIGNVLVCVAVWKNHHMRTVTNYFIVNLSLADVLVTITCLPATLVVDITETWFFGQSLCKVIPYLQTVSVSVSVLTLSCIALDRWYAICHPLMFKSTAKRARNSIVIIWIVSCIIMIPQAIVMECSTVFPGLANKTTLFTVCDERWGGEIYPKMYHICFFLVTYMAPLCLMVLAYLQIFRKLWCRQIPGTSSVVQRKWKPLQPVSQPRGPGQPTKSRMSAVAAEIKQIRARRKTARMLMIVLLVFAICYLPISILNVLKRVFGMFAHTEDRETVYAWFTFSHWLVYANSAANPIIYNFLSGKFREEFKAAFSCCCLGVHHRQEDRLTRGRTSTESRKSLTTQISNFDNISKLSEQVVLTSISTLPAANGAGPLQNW
Put plainly: Effective agonist concentration to the human Orexin receptor type 2 was determined using the Xlfit program. Format: functional.

Experiment [2] in a line: Ratio of orexin-1 receptor to orexin-2 receptor in human.

Residues, ends and D or L forms follow the SMILES beside them. Some results are limits rather than exact numbers.

As for `CC[C@H](C)[C@H](NC(=O)CNC(=O)[C@H](C)NC(=O)[C@H](C)NC(=O)[C@H](Cc1c[nH]cn1)NC(=O)[C@H](CC(N)=O)NC(=O)CNC(=O)[C@H](CO)NC(=O)[C@H](C)NC(=O)[C@H](CCC(N)=O)NC(=O)[C@H](CC(C)C)NC(=O)[C@H](CC(C)C)NC(=O)[C@H](CCCN=C(N)N)NC(=O)[C@H](CCC(N)=O)NC(=O)[C@H](CC(C)C)NC(=O)[C@H](CCCN=C(N)N)NC(=O)[C@H](C)NC(=O)[C@H](CCC(N)=O)NC(=O)[C@H](CC(C)C)NC(=O)CN)C(=O)N[C@@H](CC(C)C)C(=O)N[C@H](C(=O)N[C@@H](CCSC)C(=O)O)[C@@H](C)O` (H-GLQARLQRLLQASGNHAAGILTM-OH), a half-maximal response in experiment [1] (EC50) required 210 nM. In addition, the Ratio in experiment [2] was found to be 11.

Consider `CC[C@H](C)[C@H](NC(=O)CNC(=O)[C@H](C)NC(=O)[C@H](C)NC(=O)[C@H](Cc1c[nH]cn1)NC(=O)[C@H](CC(N)=O)NC(=O)CNC(=O)[C@H](C)NC(=O)CNC(=O)[C@H](Cc1c[nH]cn1)NC(=O)[C@H](CC(C)C)NC(=O)[C@H](CC(C)C)NC(=O)[C@H](CCC(=O)O)NC(=O)[C@H](Cc1ccc(O)cc1)NC(=O)[C@H](CC(C)C)NC(=O)[C@H](CCCN=C(N)N)NC(=O)[C@H](CS)NC(=O)[C@H](CO)NC(=O)[C@H](CS)NC(=O)[C@@H](NC(=O)[C@H](CCCCN)NC(=O)[C@H](CCC(N)=O)NC(=O)[C@H](CCCN=C(N)N)NC(=O)[C@H](CS)NC(=O)[C@@H](N)CS)[C@@H](C)O)C(=O)N[C@@H](CC(C)C)C(=O)N[C@H](C(=O)N[C@@H](CC(C)C)C(=O)O)[C@@H](C)O` (H-CCRQKTCSCRLYELLHGAGNHAAGILTL-OH), for which a half-maximal effect in experiment [1] (EC50) was put at 790 nM. Also, the Ratio in experiment [2] worked out at 1. Take `CC[C@H](C)[C@H](NC(=O)CNC(=O)[C@H](C)NC(=O)[C@H](C)NC(=O)[C@H](Cc1c[nH]cn1)NC(=O)[C@H](CC(N)=O)NC(=O)CNC(=O)[C@H](CO)NC(=O)[C@H](C)NC(=O)[C@H](CCC(N)=O)NC(=O)[C@H](CC(C)C)NC(=O)[C@H](CC(C)C)NC(=O)[C@H](CCCN=C(N)N)NC(=O)[C@H](CCC(N)=O)NC(=O)[C@H](CC(C)C)NC(=O)[C@H](CCCN=C(N)N)NC(=O)CNC(=O)[C@H](CCC(N)=O)NC(=O)[C@H](CC(C)C)NC(=O)CN)C(=O)N[C@@H](C)C(=O)N[C@H](C(=O)N[C@@H](CCSC)C(=O)O)[C@@H](C)O` (H-GLQGRLQRLLQASGNHAAGIATM-OH): the Ratio in experiment [2] was over 65.

As for `CC[C@H](C)[C@H](NC(=O)CNC(=O)[C@H](C)NC(=O)[C@@H]1CCCN1C(=O)[C@H](Cc1c[nH]cn1)NC(=O)[C@H](CC(N)=O)NC(=O)CNC(=O)[C@H](CO)NC(=O)[C@H](C)NC(=O)[C@H](CCC(N)=O)NC(=O)[C@H](CC(C)C)NC(=O)[C@H](CC(C)C)NC(=O)[C@H](CCCN=C(N)N)NC(=O)[C@H](CCC(N)=O)NC(=O)[C@H](CC(C)C)NC(=O)[C@H](CCCN=C(N)N)NC(=O)CNC(=O)[C@H](CCC(N)=O)NC(=O)[C@H](CC(C)C)NC(=O)CN)C(=O)N[C@@H](CC(C)C)C(=O)N[C@H](C(=O)N[C@@H](CCSC)C(=O)O)[C@@H](C)O` (H-GLQGRLQRLLQASGNHPAGILTM-OH), in experiment [2], the Ratio is over 230.

On to `CC[C@H](C)[C@H](NC(=O)CNC(=O)[C@H](C)NC(=O)[C@H](C)NC(=O)[C@H](Cc1c[nH]cn1)NC(=O)[C@H](CC(N)=O)NC(=O)CNC(=O)[C@H](CO)NC(=O)[C@H](C)NC(=O)[C@H](CCC(N)=O)NC(=O)[C@H](CC(C)C)NC(=O)[C@H](CC(C)C)NC(=O)[C@H](CCCN=C(N)N)NC(=O)[C@H](CCC(N)=O)NC(=O)[C@H](CC(C)C)NC(=O)[C@H](CCCN=C(N)N)NC(=O)CNC(=O)[C@@H]1CCCN1C(=O)[C@H](CC(C)C)NC(=O)CN)C(=O)N[C@@H](CC(C)C)C(=O)N[C@H](C(=O)N[C@@H](CCSC)C(=O)O)[C@@H](C)O` (H-GLPGRLQRLLQASGNHAAGILTM-OH), for which a half-maximal response in experiment [1] (EC50) required 160 nM. For the same compound, in experiment [2], the Ratio is 7.5. Turning to `CC[C@H](C)[C@H](NC(=O)CNC(=O)[C@H](C)NC(=O)[C@H](C)NC(=O)[C@H](Cc1c[nH]cn1)NC(=O)[C@H](CC(N)=O)NC(=O)CNC(=O)[C@H](CO)NC(=O)[C@H](C)NC(=O)[C@H](CCC(N)=O)NC(=O)[C@H](CC(C)C)NC(=O)[C@H](CC(C)C)NC(=O)[C@H](CCCN=C(N)N)NC(=O)[C@H](CCC(N)=O)NC(=O)[C@H](CC(C)C)NC(=O)[C@H](CCCN=C(N)N)NC(=O)CNC(=O)[C@H](CCC(N)=O)NC(=O)[C@H](CC(C)C)NC(=O)[C@H](C)N)C(=O)N[C@@H](CC(C)C)C(=O)N[C@H](C(=O)N[C@@H](CCSC)C(=O)O)[C@@H](C)O` (H-ALQGRLQRLLQASGNHAAGILTM-OH), the Ratio in experiment [2] amounted to 5.5.

Take `CC[C@H](C)[C@H](NC(=O)CNC(=O)[C@H](C)NC(=O)[C@H](C)NC(=O)[C@H](Cc1c[nH]cn1)NC(=O)[C@H](CC(N)=O)NC(=O)CNC(=O)[C@H](C)NC(=O)CNC(=O)[C@H](Cc1c[nH]cn1)NC(=O)[C@H](CC(C)C)NC(=O)[C@H](CC(C)C)NC(=O)[C@H](CCC(=O)O)NC(=O)[C@H](Cc1ccc(O)cc1)NC(=O)[C@H](CC(C)C)NC(=O)[C@H](CCCN=C(N)N)NC(=O)[C@H](CS)NC(=O)[C@@H](N)CO)C(=O)N[C@@H](CC(C)C)C(=O)N[C@H](C(=O)N[C@@H](CC(C)C)C(=O)O)[C@@H](C)O` (H-SCRLYELLHGAGNHAAGILTL-OH): the Ratio in experiment [2] came to 2.3. Take `CC[C@H](C)[C@H](NC(=O)CNC(=O)[C@H](C)NC(=O)[C@H](C)NC(=O)[C@H](Cc1c[nH]cn1)NC(=O)[C@H](CC(N)=O)NC(=O)CNC(=O)[C@H](CO)NC(=O)[C@H](C)NC(=O)[C@H](C)NC(=O)[C@H](CC(C)C)NC(=O)[C@H](CC(C)C)NC(=O)[C@H](CCCN=C(N)N)NC(=O)[C@H](CCC(N)=O)NC(=O)[C@H](CC(C)C)NC(=O)[C@H](CCCN=C(N)N)NC(=O)CNC(=O)[C@H](CCC(N)=O)NC(=O)[C@H](CC(C)C)NC(=O)CN)C(=O)N[C@@H](CC(C)C)C(=O)N[C@H](C(=O)N[C@@H](CCSC)C(=O)O)[C@@H](C)O` (H-GLQGRLQRLLAASGNHAAGILTM-OH): the Ratio in experiment [2] is 8.6. Still for that read-out and setting: to `CC[C@H](C)[C@H](NC(=O)CNC(=O)[C@@H]1CCCN1C(=O)[C@H](C)NC(=O)[C@H](Cc1c[nH]cn1)NC(=O)[C@H](CC(N)=O)NC(=O)CNC(=O)[C@H](CO)NC(=O)[C@H](C)NC(=O)[C@H](CCC(N)=O)NC(=O)[C@H](CC(C)C)NC(=O)[C@H](CC(C)C)NC(=O)[C@H](CCCN=C(N)N)NC(=O)[C@H](CCC(N)=O)NC(=O)[C@H](CC(C)C)NC(=O)[C@H](CCCN=C(N)N)NC(=O)CNC(=O)[C@H](CCC(N)=O)NC(=O)[C@H](CC(C)C)NC(=O)CN)C(=O)N[C@@H](CC(C)C)C(=O)N[C@H](C(=O)N[C@@H](CCSC)C(=O)O)[C@@H](C)O` (H-GLQGRLQRLLQASGNHAPGILTM-OH) belongs over 280. For the compound `CC[C@H](C)[C@H](NC(=O)CNC(=O)[C@H](C)NC(=O)[C@H](C)NC(=O)[C@H](Cc1c[nH]cn1)NC(=O)[C@H](CC(N)=O)NC(=O)CNC(=O)[C@H](C)NC(=O)CNC(=O)[C@H](Cc1c[nH]cn1)NC(=O)[C@H](CC(C)C)NC(=O)[C@H](CC(C)C)NC(=O)[C@H](CCC(=O)O)NC(=O)[C@H](Cc1ccc(O)cc1)NC(=O)[C@H](CC(C)C)NC(=O)[C@H](CCCN=C(N)N)NC(=O)[C@H](CS)NC(=O)[C@H](CO)NC(=O)[C@H](CS)NC(=O)[C@@H](N)[C@@H](C)O)C(=O)N[C@@H](CC(C)C)C(=O)N[C@H](C(=O)N[C@@H](CC(C)C)C(=O)O)[C@@H](C)O` (H-TCSCRLYELLHGAGNHAAGILTL-OH), the Ratio in experiment [2] amounted to 3.2. Still for that read-out and setting: under `CC[C@H](C)[C@H](NC(=O)CNC(=O)[C@H](C)NC(=O)[C@H](C)NC(=O)[C@H](Cc1c[nH]cn1)NC(=O)[C@H](CC(N)=O)NC(=O)CNC(=O)[C@H](C)NC(=O)CNC(=O)[C@H](Cc1c[nH]cn1)NC(=O)[C@H](CC(C)C)NC(=O)[C@H](CC(C)C)NC(=O)[C@H](CCC(=O)O)NC(=O)[C@H](Cc1ccc(O)cc1)NC(=O)[C@H](CC(C)C)NC(=O)[C@H](CCCN=C(N)N)NC(=O)[C@H](CSSC[C@H](NC(=O)[C@@H](N)CO)C(=O)N[C@@H](CCCN=C(N)N)C(=O)N[C@@H](CC(C)C)C(=O)N[C@@H](Cc1ccc(O)cc1)C(=O)N[C@@H](CCC(=O)O)C(=O)N[C@@H](CC(C)C)C(=O)N[C@@H](CC(C)C)C(=O)N[C@@H](Cc1c[nH]cn1)C(=O)NCC(=O)N[C@@H](C)C(=O)NCC(=O)N[C@@H](CC(N)=O)C(=O)N[C@@H](Cc1c[nH]cn1)C(=O)N[C@@H](C)C(=O)N[C@@H](C)C(=O)NCC(=O)N[C@H](C(=O)N[C@@H](CC(C)C)C(=O)N[C@H](C(=O)N[C@@H](CC(C)C)C(=O)O)[C@@H](C)O)[C@@H](C)CC)NC(=O)[C@@H](N)CO)C(=O)N[C@@H](CC(C)C)C(=O)N[C@H](C(=O)N[C@@H](CC(C)C)C(=O)O)[C@@H](C)O` stands 2.9. Same read-out and setting: under `CC[C@H](C)[C@H](NC(=O)CNC(=O)[C@H](C)NC(=O)[C@H](C)NC(=O)[C@H](Cc1c[nH]cn1)NC(=O)[C@H](CC(N)=O)NC(=O)CNC(=O)[C@H](CO)NC(=O)[C@H](C)NC(=O)[C@H](CCC(N)=O)NC(=O)[C@H](CC(C)C)NC(=O)[C@H](CC(C)C)NC(=O)[C@H](CCCN=C(N)N)NC(=O)[C@H](CCC(N)=O)NC(=O)[C@H](CC(C)C)NC(=O)[C@H](CCCN=C(N)N)NC(=O)CNC(=O)[C@H](CCC(N)=O)NC(=O)[C@H](CC(C)C)NC(=O)CN)C(=O)N[C@@H](CC(C)C)C(=O)N1CCC[C@H]1C(=O)N[C@@H](CCSC)C(=O)O` (H-GLQGRLQRLLQASGNHAAGILPM-OH) stands over 375.

These data come from ChEMBL document CHEMBL1148480, “Structure-activity studies of orexin a and orexin B at the human orexin 1 and orexin 2 receptors led to orexin 2 receptor selective and orexin 1 receptor preferring ligands” (J Med Chem, 2004).
